Laboratory results reported in paper PMC3690672 (European journal of nuclear medicine and molecular imaging, 2009).
Several values for one entry are separate records, joined by “and”; a condition that tells them apart may be missing. Identical values can stand only once. Like-named read-outs stand apart in the source and are kept apart here.

What was measured:
[1] = tested on: P-glycoprotein (P-gp) at the blood-brain barrier; type: in vivo, rat
[2] = Tariquidar or elacridar concentrations in plasma and brain by LC/MS; type: in vivo; details: rat; for concentration at 210 min / concentration at 180 min: intravenous
[3] = target: T1, P-glycoprotein (P-gp) at the blood-brain barrier (Rattus norvegicus, UniProt Q6PSM0); details: for DV (Logan) of VPM / DV of VPM (2T4K model) / K1 of VPM (2T4K model) / k2 of VPM (2T4K model) / k3 of VPM (2T4K model) / k4 of VPM (2T4K model): whole brain, PET 120 min after, mean±SD
T1 sequence (Q6PSM0 1-1272): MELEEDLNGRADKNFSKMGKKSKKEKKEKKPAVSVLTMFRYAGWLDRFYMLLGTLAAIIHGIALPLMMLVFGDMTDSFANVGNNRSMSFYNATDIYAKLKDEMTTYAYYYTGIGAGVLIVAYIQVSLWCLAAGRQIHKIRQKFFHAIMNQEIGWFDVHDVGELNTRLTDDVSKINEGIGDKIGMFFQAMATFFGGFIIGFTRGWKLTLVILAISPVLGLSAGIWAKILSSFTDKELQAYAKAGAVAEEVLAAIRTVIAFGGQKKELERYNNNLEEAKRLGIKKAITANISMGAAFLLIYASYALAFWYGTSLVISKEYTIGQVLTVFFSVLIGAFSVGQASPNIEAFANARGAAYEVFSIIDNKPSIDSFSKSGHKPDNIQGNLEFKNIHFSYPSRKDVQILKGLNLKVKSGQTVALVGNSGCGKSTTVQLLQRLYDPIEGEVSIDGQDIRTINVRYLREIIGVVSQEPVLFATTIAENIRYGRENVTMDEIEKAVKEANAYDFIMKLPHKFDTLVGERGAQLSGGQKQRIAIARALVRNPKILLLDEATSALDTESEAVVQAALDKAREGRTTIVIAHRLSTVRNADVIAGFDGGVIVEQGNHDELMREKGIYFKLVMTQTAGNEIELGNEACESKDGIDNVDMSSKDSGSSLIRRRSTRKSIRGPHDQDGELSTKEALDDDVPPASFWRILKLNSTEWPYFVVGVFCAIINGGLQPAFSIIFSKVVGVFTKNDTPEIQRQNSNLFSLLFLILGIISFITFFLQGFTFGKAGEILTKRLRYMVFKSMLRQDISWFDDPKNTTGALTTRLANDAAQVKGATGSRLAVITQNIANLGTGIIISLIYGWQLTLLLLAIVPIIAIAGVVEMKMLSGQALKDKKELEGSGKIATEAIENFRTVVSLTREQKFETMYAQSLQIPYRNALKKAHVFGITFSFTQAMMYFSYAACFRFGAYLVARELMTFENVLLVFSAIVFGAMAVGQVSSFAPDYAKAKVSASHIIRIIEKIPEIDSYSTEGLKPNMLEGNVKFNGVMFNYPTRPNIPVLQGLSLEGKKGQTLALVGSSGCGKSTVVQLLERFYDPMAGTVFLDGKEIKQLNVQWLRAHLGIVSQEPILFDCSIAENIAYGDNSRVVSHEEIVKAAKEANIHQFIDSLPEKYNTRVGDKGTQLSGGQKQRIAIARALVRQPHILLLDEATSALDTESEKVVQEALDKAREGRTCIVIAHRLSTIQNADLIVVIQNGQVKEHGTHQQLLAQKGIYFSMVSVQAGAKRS

[4] = target: T1, P-glycoprotein (P-gp) at the blood-brain barrier; details: for Mean DV increase (of baseline DV): 3 mg/kg tariquidar; for DV (Logan) of VPM / DV of VPM (2T4K model) / K1 of VPM (2T4K model) / k2 of VPM (2T4K model) / k3 of VPM (2T4K model) / k4 of VPM (2T4K model): after 3 mg/kg tariquidar (scan 2, 120 min after), mean±SD, n=6
[5] = tested on: multidrug resistance-associated proteins (MRPs), such as MRP1; details: cited from earlier work
[6] = tested on: P-gp at the blood-brain barrier; details: humans, 2 mg/kg, plasma 490±203 ng/ml; cited from earlier work
[7] = tested on: P-gp at the blood-brain barrier; details: 15 mg/kg, rats; cited from earlier work
[8] = humans, 2 mg/kg; cited from earlier work
[9] = target: T1, P-glycoprotein (P-gp) at the blood-brain barrier; experiment: in vivo
[10] = Hill fit of whole-brain DV vs inhibitor dose

Compound: COc1cc2c(cc1OC)CN(CCc1ccc(NC(=O)c3cc(OC)c(OC)cc3NC(=O)c3cnc4ccccc4c3)cc1)CC2 [tariquidar, Tariquidar dimesylate]
- Reversibility of the effect on brain TACs ([1]; 15 mg/kg, decline of TACs after peak uptake): at least partially reversible
- Time of peak VPM brain uptake (maximum effect) after inhibitor injection ([1]; tariquidar 15 mg/kg or elacridar 5 mg/kg at 60 min after radiotracer injection): 30 ± 5 min and 30 min
- concentration at 210 min ([2]; brain, 3 mg/kg): 457 ± 37 ng/mL
- concentration at 180 min ([2]; brain, 15 mg/kg): 6450 ± 3600 ng/mL
- Kp at […] ([2]; brain, iv, 3 mg/kg): 1 ± 0.3
- Kp at 3 h ([2]; brain, iv, 15 mg/kg): 1.7 ± 0.9
- concentration at 210 min ([2]; plasma, 3 mg/kg): 503 ± 139 ng/mL
- concentration at 180 min ([2]; plasma, 15 mg/kg): 4000 ± 390 ng/mL
- DVmax (maximum effect) [3, 10]: 11.9±0.5 ml·ml^−1
- Hill factor n [3, 10]: 3.0±0.6
- Dose leading to complete inhibition of P-gp ([3]; according to dose-response assessment (Fig. 2)): above 6 mg/kg
- Maximum increase in VPM brain distribution (DV) over baseline ([3]; at maximum effective doses, rat brain): up to 11 fold
- Whole-brain DV increase (factor) as compared to baseline scans ([3]; inhibitor 3.75 mg/kg): 7.0±1.1
- Whole-brain DV increase (factor) as compared to baseline scans ([3]; inhibitor 7.5 mg/kg): 10.1±0.8
- Whole-brain DV increase (factor) as compared to baseline scans ([3]; inhibitor 15 mg/kg): 9.9±1.8
- Whole-brain DV increase (factor) as compared to baseline scans ([3]; inhibitor 30 mg/kg): 10.2±0.3
- Increase of brain DVs at the half-maximum effect plasma concentration ([3]; rat, in vivo): approximately 4 fold
- DV (Logan) of VPM ([3]; inhibitor 3.75 mg/kg i.v.): 8.80±1.06 (0.9) ml·ml^−1
- DV of VPM (2T4K model) ([3]; inhibitor 3.75 mg/kg i.v.): 8.92±1.11 (2.3) ml·ml^−1
- K1 of VPM (2T4K model) ([3]; inhibitor 3.75 mg/kg i.v.): 0.81±0.16 (13.9) ml·ml^−1·min^−1
- k2 of VPM (2T4K model) ([3]; inhibitor 3.75 mg/kg i.v.): 0.18±0.05 (50.3) min^−1
- k3 of VPM (2T4K model) ([3]; inhibitor 3.75 mg/kg i.v.): 0.20±0.02 (101.3) min^−1
- k4 of VPM (2T4K model) ([3]; inhibitor 3.75 mg/kg i.v.): 0.22±0.07 (51.4) min^−1
- DV (Logan) of VPM ([3]; inhibitor 7.5 mg/kg i.v.): 12.66±0.77 (0.9) ml·ml^−1
- DV of VPM (2T4K model) ([3]; inhibitor 7.5 mg/kg i.v.): 12.93±0.79 (1.7) ml·ml^−1
- K1 of VPM (2T4K model) ([3]; inhibitor 7.5 mg/kg i.v.): 1.27±0.24 (17.4) ml·ml^−1·min^−1
- k2 of VPM (2T4K model) ([3]; inhibitor 7.5 mg/kg i.v.): 0.31±0.12 (82.5) min^−1
- k3 of VPM (2T4K model) ([3]; inhibitor 7.5 mg/kg i.v.): 0.37±0.10 (97.3) min^−1
- k4 of VPM (2T4K model) ([3]; inhibitor 7.5 mg/kg i.v.): 0.18±0.01 (23.9) min^−1
- DV (Logan) of VPM ([3]; inhibitor 15 mg/kg i.v.): 12.35±1.79 (1.4) ml·ml^−1
- DV of VPM (2T4K model) ([3]; inhibitor 15 mg/kg i.v.): 12.72±1.83 (1.8) ml·ml^−1
- K1 of VPM (2T4K model) ([3]; inhibitor 15 mg/kg i.v.): 1.02±0.02 (15.0) ml·ml^−1·min^−1
- k2 of VPM (2T4K model) ([3]; inhibitor 15 mg/kg i.v.): 0.43±0.16 (50.3) min^−1
- k3 of VPM (2T4K model) ([3]; inhibitor 15 mg/kg i.v.): 0.48±0.04 (39.2) min^−1
- k4 of VPM (2T4K model) ([3]; inhibitor 15 mg/kg i.v.): 0.12±0.02 (20.4) min^−1
- DV (Logan) of VPM ([3]; inhibitor 30 mg/kg i.v.): 12.76±0.04 (0.7) ml·ml^−1
- DV of VPM (2T4K model) ([3]; inhibitor 30 mg/kg i.v.): 13.11±0.22 (2.1) ml·ml^−1
- K1 of VPM (2T4K model) ([3]; inhibitor 30 mg/kg i.v.): 1.22±0.23 (11.2) ml·ml^−1·min^−1
- k2 of VPM (2T4K model) ([3]; inhibitor 30 mg/kg i.v.): 0.30±0.04 (54.6) min^−1
- k3 of VPM (2T4K model) ([3]; inhibitor 30 mg/kg i.v.): 0.38±0.18 (59.4) min^−1
- k4 of VPM (2T4K model) ([3]; inhibitor 30 mg/kg i.v.): 0.17±0.09 (19.8) min^−1
- Mean DV increase (of baseline DV) ([4]; cerebellum): 2.8±0.7
- DV (Logan) of VPM ([4]; cerebellum): 6.07±0.52 (0.9) ml·ml^−1
- DV of VPM (2T4K model) ([4]; cerebellum): 6.14 ml·ml^−1 and 6.14±0.54 (2.9) ml·ml^−1
- K1 of VPM (2T4K model) ([4]; cerebellum): 0.73±0.14 (11.7) ml·ml^−1·min^−1
- k2 of VPM (2T4K model) ([4]; cerebellum): 0.32±0.13 (46.6) min^−1
- k3 of VPM (2T4K model) ([4]; cerebellum): 0.30±0.08 (75.2) min^−1
- k4 of VPM (2T4K model) ([4]; cerebellum): 0.20±0.05 (26.4) min^−1
- Mean DV increase (of baseline DV) ([4]; corpus striatum): 5.9±1.1
- DV (Logan) of VPM ([4]; corpus striatum): 8.70±1.05 (0.6) ml·ml^−1
- DV of VPM (2T4K model) ([4]; corpus striatum): 8.89±1.08 (2.7) ml·ml^−1
- K1 of VPM (2T4K model) ([4]; corpus striatum): 0.79±0.13 (10.5) ml·ml^−1·min^−1
- k2 of VPM (2T4K model) ([4]; corpus striatum): 0.28±0.08 (46.6) min^−1
- k3 of VPM (2T4K model) ([4]; corpus striatum): 0.47±0.22 (53.4) min^−1
- k4 of VPM (2T4K model) ([4]; corpus striatum): 0.22±0.06 (23.1) min^−1
- Mean DV increase (of baseline DV) ([4]; entorhinal cortex): 3.0±1.4
- DV (Logan) of VPM ([4]; entorhinal cortex): 6.09±1.37 (1.1) ml·ml^−1
- DV of VPM (2T4K model) ([4]; entorhinal cortex): 6.20±1.40 (3.4) ml·ml^−1
- K1 of VPM (2T4K model) ([4]; entorhinal cortex): 0.64±0.17 (12.9) ml·ml^−1·min^−1
- k2 of VPM (2T4K model) ([4]; entorhinal cortex): 0.37±0.14 (57.5) min^−1
- k3 of VPM (2T4K model) ([4]; entorhinal cortex): 0.34±0.10 (68.9) min^−1
- k4 of VPM (2T4K model) ([4]; entorhinal cortex): 0.15±0.05 (22.5) min^−1
- Mean DV increase (of baseline DV) ([4]; frontal motor cortex): 3.1±1.1
- DV (Logan) of VPM ([4]; frontal motor cortex): 7.14±0.80 (0.9) ml·ml^−1
- DV of VPM (2T4K model) ([4]; frontal motor cortex): 7.33±0.82 (1.7) ml·ml^−1
- K1 of VPM (2T4K model) ([4]; frontal motor cortex): 0.63±0.08 (9.5) ml·ml^−1·min^−1
- k2 of VPM (2T4K model) ([4]; frontal motor cortex): 0.24±0.05 (49.6) min^−1
- k3 of VPM (2T4K model) ([4]; frontal motor cortex): 0.32±0.09 (68.7) min^−1
- k4 of VPM (2T4K model) ([4]; frontal motor cortex): 0.19±0.06 (23.8) min^−1
- Mean DV increase (of baseline DV) ([4]; hippocampus): 6.4±0.9
- DV (Logan) of VPM ([4]; hippocampus): 8.01±0.88 (0.9) ml·ml^−1
- DV of VPM (2T4K model) ([4]; hippocampus): 8.17±0.91 (2.2) ml·ml^−1
- K1 of VPM (2T4K model) ([4]; hippocampus): 0.75±0.11 (11.1) ml·ml^−1·min^−1
- k2 of VPM (2T4K model) ([4]; hippocampus): 0.32±0.08 (57.9) min^−1
- k3 of VPM (2T4K model) ([4]; hippocampus): 0.43±0.09 (69.4) min^−1
- k4 of VPM (2T4K model) ([4]; hippocampus): 0.18±0.05 (23.8) min^−1
- Mean DV increase (of baseline DV) ([4]; thalamus): 7.1±1.1
- DV (Logan) of VPM ([4]; thalamus): 9.45±1.03 (0.6) ml·ml^−1
- DV of VPM (2T4K model) ([4]; thalamus): 9.64 ml·ml^−1 and 9.64±1.06 (2.0) ml·ml^−1
- K1 of VPM (2T4K model) ([4]; thalamus): 0.93±0.12 (9.0) ml·ml^−1·min^−1
- k2 of VPM (2T4K model) ([4]; thalamus): 0.33±0.18 (48.8) min^−1
- k3 of VPM (2T4K model) ([4]; thalamus): 0.47±0.11 (64.4) min^−1
- k4 of VPM (2T4K model) ([4]; thalamus): 0.23±0.06 (23.6) min^−1
- Inhibition of MRPs, such as MRP1 [5]: do not inhibit
- Increase of brain DVs of VPM [6]: 1.24 fold
- DV increase of VPM following tariquidar [7]: approximately 12 fold
- Plasma concentration at the time of the PET scan [8]: 490 ± 203 ng/mL
- EC50 at 180 min [9]: 0.545 ± 0.0299 µg/mL
- ED50 at 120 min ([9]; Sprague-Dawley, iv): 3 ± 0.2 mg/kg
